Results: paper PMC8745345, “Hydroxy Pentacyclic Triterpene Acid, Kaempferol, Inhibits the Human 5-Hydroxytryptamine Type 3A Receptor Activity” (International Journal of Molecular Sciences, 2022)
Positions count from the first letter of the chain named.

Columns and labels:
[1] = biological target: T1, human 5-HT3A receptor R65A mutant (Homo sapiens, UniProt P46098, R87A); assay: Two-electrode voltage clamp, I5-HT inhibition, R65A mutant; assay type: cell-based; conditions: −80 mV
T1 sequence (P46098 24-478 R87A): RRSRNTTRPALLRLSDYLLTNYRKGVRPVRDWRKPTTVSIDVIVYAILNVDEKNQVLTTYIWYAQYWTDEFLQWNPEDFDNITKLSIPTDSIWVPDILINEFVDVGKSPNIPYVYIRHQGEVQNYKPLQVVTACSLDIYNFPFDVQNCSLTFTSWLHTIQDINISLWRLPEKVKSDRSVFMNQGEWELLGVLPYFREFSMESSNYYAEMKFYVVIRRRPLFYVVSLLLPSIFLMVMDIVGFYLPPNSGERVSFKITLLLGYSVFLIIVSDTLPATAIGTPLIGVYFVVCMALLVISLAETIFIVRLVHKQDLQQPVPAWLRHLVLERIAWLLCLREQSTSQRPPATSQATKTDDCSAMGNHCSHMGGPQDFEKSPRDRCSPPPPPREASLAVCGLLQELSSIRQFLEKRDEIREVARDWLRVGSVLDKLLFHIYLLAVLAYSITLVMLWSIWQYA
Method: (§1) Human 5-HT3A receptor cDNA was linearized using restriction enzyme XhoI. In vitro transcription was performed using an mMESSAGE mMACHINE T7 Transcription Kit (Thermo Fisher Scientific, Waltham, MA, USA). The final mRNA product was dissolved in 1X Diethyl Pyrocarbonate (RNase-free water) at a final concentration of 1 μg/μL and kept in a deep-freezer at −80 °C until used.
(§2) Xenopus oocytes were used in this study as cells for expression of human 5-HT3A receptor. All female frogs used in this experiment were obtained from the Korean Xenopus Resource Center for Research (KXRCR000001). […] Xenopus oocytes were extracted during ice incubation state and isolated as single oocytes using collagenase II (2 mg/mL) in OR2 buffer (82.5 mM NaCl, 2 mM KCl, 1 mM MgCl2, 5 mM HEPES, pH 7.4). Isolated oocytes were incubated with ND96 incubation buffer (96 mM NaCl, 2 mM KCl, 1 mM MgCl2, 1.8 mM CaCl2, 5 mM HEPES, 2.5 mM sodium pyruvate, and 50 mg/mL gentamycin, pH 7.4) at 18 °C until the experiment was performed. Human 5-HT3A receptor mRNA was injected into oocytes using a nanoinjector (Drummond Scientific, Broomall, PA, USA) with a mineral-filled 10 μL microdispenser (VWR, Piscataway, NJ, USA).
(§3) To confirm the KAE activity on the human 5-HT3A receptor, a two-electrode voltage clamp (OC-725C; Warner Instruments, Hamden, CT, USA) with a Digitata 1550A was used. For the experiment, induced-inward current was converted to digital data with pClamp 10 software (Axon Instruments, Union City, CA, USA). All experiments were performed at room temperature using an oocyte clamp equipped with Digidata. The membrane holding potential was −80 mV.
(§4) The voltage relationship experiment for confirming the relationship between induce-inward current and voltage, the voltage was varied from −80 mV to +60 mV using a ramp protocol. […] All recording data were analyzed using Clampfit 9.0 (Molecular Devices, San Jose, CA, USA). […]
(§5) All presented experiments were performed at least three times for scientific verification. […] Induced-inward current data were analyzed with SigmaPlot 10.0 software (Systat Software, Inc., San Jose, CA, USA). […]

[2] = biological target: T2, human 5-HT3A receptor D177A mutant (Homo sapiens, UniProt P46098, D199A); assay: Two-electrode voltage clamp, I5-HT inhibition, D177A mutant; assay type: cell-based; conditions: −80 mV
T2 sequence (P46098 24-478 D199A): T1 sequence (P46098 24-478 R87A) with A64R, D176A
Method: as §1, §2, §3, §4, §5

Compound: O=c1c(O)c(-c2ccc(O)cc2)oc2cc(O)cc(O)c12 [KAE, kaempferol]
- IC50 [1]: 44.7 ± 9.1 µM
- Vmax [1]: 82.6 ± 7.4%
- n (Hill coefficient) [1]: 1.8 ± 0.7
- n (Hill coefficient) [2]: 1.3 ± 0.2
- IC50 ([2]; Table 1): 13.9 ± 4.2 µM
- Vmax ([2]; Table 1): 23.3 ± 13.4%
